Results as given in PMC6473174, “Ranking Hits From Saturation Transfer Difference Nuclear Magnetic Resonance–Based Fragment Screening” (Frontiers in Chemistry, 2019).

Tests used:
[1] = target: Beta-lactamase (ampC; P00811); conditions: read-out: Affinity; AmpC fragment complexes, Figure 2; ref Barelier et al., 2014; cited from earlier work
[2] = target: Heat shock protein HSP 90-alpha (HSP90AA1; P07900); design: method as in Roughley and Hubbard, 2011; conditions: HSP90 fragment complexes, Figure 2; ref Roughley and Hubbard, 2011; read-out: Affinity; cited from earlier work
[3] = target: cAMP and cAMP-inhibited cGMP 3',5'-cyclic phosphodiesterase 10A (PDE10A; Q9Y233); design: method as in Recht et al., 2014; conditions: PDE10A fragment complexes, Figure 2; ref Recht et al., 2014; read-out: Affinity; cited from earlier work
[4] = target: Glycogen synthase kinase-3 beta (GSK3B; P49841); conditions: GSK3b complex PDB 4J71, Figure S4; read-out: Affinity; cited from earlier work
murine langerin [5] = target: T1, murine langerin (Mus musculus, UniProt Q8VBX4); design: method as in Aretz et al. (2018); conditions: estimated by SPR; murine langerin on CM7 chip; 25 mM HEPES pH 7.6, 150 mM NaCl, 5 mM CaCl2, 0.005% Tween-20; ref Aretz et al. (2018); read-out: Affinity; cited from earlier work
T1 sequence (Q8VBX4 1-331): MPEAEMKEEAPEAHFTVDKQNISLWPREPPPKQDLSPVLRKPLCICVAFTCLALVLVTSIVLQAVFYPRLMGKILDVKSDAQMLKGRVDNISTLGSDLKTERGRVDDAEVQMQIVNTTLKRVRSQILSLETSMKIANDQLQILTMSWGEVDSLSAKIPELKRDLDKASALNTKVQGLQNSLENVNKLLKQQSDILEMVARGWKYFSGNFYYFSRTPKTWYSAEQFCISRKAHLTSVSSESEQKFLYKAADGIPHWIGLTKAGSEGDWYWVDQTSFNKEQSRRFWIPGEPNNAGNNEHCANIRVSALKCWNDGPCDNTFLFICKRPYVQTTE

murine langerin [6] = target: T1, murine langerin; experiment: STD NMR measurements (fragment screening and epitope mapping), STD amplification factor; type: binding
Procedure: STD NMR experiments were performed as described elsewhere (Aretz et al., [2018]). Briefly, 10 μM murine langerin was screened against a library of 660 fragments at a ligand concentration [L] = 0.2 mM using a saturation time of tsat = 4 s. Hits were counter-screened by SPR (see the section Estimation of Affinity Using Surface Plasmon Resonance), enabling affinity estimation and hit validation. For SPR-validated hits, the STD amplification factor was determined as reported earlier (Mayer and Meyer, [2001]) and plotted against affinity (Figure 1A). For epitope mapping of thiazolopyrimidine derivatives (Figure 2E), protein concentration was [P] = 20 μM, ligand concentration was [L] = 0.5–1 mM, and tsat = 1 s. Affinity of all derivatives was estimated by SPR (see the section Estimation of Affinity Using Surface Plasmon Resonance), and the STD amplification factor was determined as reported earlier for the proton in the 7-position of the thiazolopyrimidine scaffold (Mayer and Meyer, [2001]). Spectra were analyzed in MestReNova 10.0.0.

[7] = Figure 1a fragment screening, [P] = 10 μM, [L] = 0.2 mM, tsat = 4 s

Row | STD amplification factor (murine langerin [6]; [7]) | Compound | Kd (murine langerin [5]) | also measured
1 | – | O=C(O)c1sccc1S(=O)(=O)NC1CC1 [4KZA] | – | Kd [1]: 0.2 mM
2 | – | C[C@@H](C(=O)O)N(c1ccccc1)S(C)(=O)=O [4KZB] | – | Kd [1]: 1.3 mM
3 | – | NC(=O)c1ccccc1N [CHEMBL43175] | – | Kd [2]: > 0.4 mM
4 | – | CC1CCCC(C(=O)O)N1C(=O)CCS (stereo not shown) [CHEMBL331575] | – | Kd [1]: 0.8 mM
5 | – | Cc1nc2ccccc2c(=O)[nH]1 [CHEMBL395092] | – | Kd [3]: 0.99 mM
6 | – | CCC(=O)c1ccc(O)cc1O [CHEMBL539379] | – | Kd [2]: 0.57 mM
7 | – | COC(=O)Cc1cc(O)cc(O)c1 [CHEMBL540934] | – | Kd [2]: 0.49 mM
8 | – | CCN1C(=O)CC(=O)N(CC)C1=S [CHEMBL2136061] | – | Kd [1]: 1.6 mM
9 | – | C[C@@H]1Nc2cccnc2NC1=O [CHEMBL3941552] | – | Kd [4]: > 3 mM
10 | 19 | Cc1nnc(-c2ccccc2)nc1O [S3] | 4.7 ± 0.6 mM | –
11 | 55 | O=C(O)Cc1cccc2occc12 [S6] | 4.3 ± 0.5 mM | –
12 | 86 | Cc1ccsc1/C=C/C(=O)O [S8] | 3.4 ± 0.4 mM | –
13 | 23 | Nc1cccc2c1CN(C1CCCCC1)C2=O [S11] | 0.7 ± 0.2 mM | –
14 | 10 | COc1ccc2c(c1)C(CC(=O)O)CC2=O (stereo not shown) [S12] | 1.1 ± 0.2 mM | –
15 | 33 | N#Cc1c(N)sc2c1CCCC2 [S13] | 1.5 ± 0.3 mM | –
16 | 36 | O=C(O)/C=C/c1ccc2c(c1)OCCO2 [S14] | 2.2 ± 0.2 mM | –
17 | 41 | CN(C)S(=O)(=O)c1cccc(C(=O)O)c1 [S15] | 11.3 ± 3 mM | –
18 | 21 | NC(=O)c1ccc(Cl)s1 [S18] | 3.5 ± 0.2 mM | –
19 | 13 | CCC(C)(C(=O)O)c1cccs1 (stereo not shown) [S21] | 3.3 ± 0.2 mM | –
20 | 8 | c1ccc(-c2nnc3n2CCCC3)cc1 [S30] | 10 ± 3 mM | –

Row | STD amplification factor (murine langerin [6]; [7]) | Compound | Kd (murine langerin [5]) | also measured
21 | 5 | COc1ccccc1/C=C1/C(=O)N=C(N)N1C [S31] | 4 ± 2 mM | –
22 | 44 | CC(=O)c1ccn(S(=O)(=O)c2ccccc2)c1 [S36] | 19 ± 1 mM | –
23 | 2 | CCN1C(=O)c2ccccc2NC12CCCC2 [S37] | 13 ± 2 mM | –
24 | 4 | Cc1cc(C)c(S(=O)(=O)C(C)C)c(Cl)n1 [S38] | 4.7 ± 0.7 mM | –
25 | 49 | COC(=O)c1cc(C)c(N)c(Br)c1 [S39] | 28 ± 9 mM | –
26 | 79 | COc1cc(C(=O)O)c(Br)cc1C [S42] | 5.4 ± 0.9 mM | –
27 | 7 | CNC(=O)Nc1nnc(C(C)(C)C)s1 [S44] | 2.9 ± 0.4 mM | –
28 | 3 | CN(C)C(=O)c1csc(-c2ccccc2)n1 [S52] | 2.7 ± 0.4 mM | –
29 | 37 | Cn1cc(CC(=O)O)c2ccccc21 [S53] | 3 ± 0.1 mM | –
30 | 10 | O=C(O)c1cccn(Cc2ccccc2)c1=O [S55] | 24.7 ± 10.3 mM | –
31 | 3 | COc1ccc(NS(C)(=O)=O)cc1 [S56] | 16.8 ± 3.6 mM | –
32 | 2 | CC(=O)Nc1ccc2nc(C)oc2c1 [S57] | 5.7 ± 0.4 mM | –
33 | 19 | OCc1cc(-c2ccccc2)on1 [S58] | 2.3 ± 0.1 mM | –
34 | 13 | CCNCc1cc(O)ccc1Br [S59] | 2 ± 0.3 mM | –
35 | 24 | O=C(Nc1ccccc1O)c1cccnc1Cl [S60] | 2.4 ± 0.1 mM | –
36 | 16 | O=C1NC(=O)C(Cc2ccncc2)S1 (stereo not shown) [S61] | 3.8 ± 0.3 mM | –
37 | 4 | COc1cc(C(C)=O)ccc1N [S63] | 9 ± 1 mM | –
38 | 43 | COC(=O)c1cc2c(s1)CCC2 [S65] | 4.5 ± 0.7 mM | –
39 | 44 | Nc1ccc2sc(C(=O)O)cc2c1 [S66] | 11.6 ± 0.1 mM | –
40 | 16 | O=c1c(-c2ccn[nH]2)cnc2sccn12 [compound 1] | 0.8 ± 0.1 mM | STD amplification factor (murine langerin [6]; Figure 2e thiazolopyrimidine SAR, proton in 7-position, [P] = 20 μM, [L] = 0.5–1 mM, tsat = 1 s): 1.8

Row | Compound | STD amplification factor (murine langerin [6]; [7]) | Kd (murine langerin [5]) | also measured
41 | CN(C)C(=O)Oc1cccc(C(=O)O)c1 [S22] | 24 | ~4 mM | –
42 | O=C1NC(=O)[C@@H]2CN(Cc3ccccc3)C[C@H]12 [S23] | 4 | 4.9 ± 0.2 mM | –
